According to patent US20150065709A1, “Aminoquinazoline Derivative And Use Thereof In Preparing Anti-Malignant Tumor Medicament” (METABOMICS, INC, priority 2012, published 2015):
Where two headings read alike, the source gives them in different places.

Legend:
[1] = Pharmacokinetic experiments in CD-1 mice; format: in vivo; conditions: male, mouse, plasma; for half-life: read-out: Terminal t1/2 (converted)
Experimental: Experiment animals: CD-1 mice, male, 6-7 weeks of age; body weight: 20-25 g; Preparation of samples: the test compounds respectively were formulated to 0.2 mg/mL (for intravenous administration) and 1.0 mg/mL (for oral administration) for use. Administration routes: oral administration/intravenous administration. Amount and frequency of administration: 5 mL/kg for single administration.
Sample collection: blood was collected at the time points of 5 min, 15 min, 30 min, 1 h, 2 h, 4 h, 8 h and 24 h, about […] whole blood was collected from 3 animals at each time point. All of the animals were euthanized after the experiments.
Sample analysis: the collected samples were detected by LC-MS/MS, and the instrument model is SHIMADZU20A-API4000.
(§1) Pharmacokinetic data analysis: the obtained plasma concentration data were fitted and calculated using WinNolin according to non-compartment model.

[2] = system: CAL27 (head and neck cancer); assay: Transplanted tumor in nude mice, CAL27 model; format: in vivo, nude mice (BALB/c); conditions: 10 mg/kg/day orally for 21 days
Text: Furthermore, more pharmacological models of tumor cell lines in nude mice were utilized to validate the inhibitory effects of compound Ie. The test method was specifically described as follows: H1975, A549, HCC827, A431, N87, MDA-MD-468 and CAL27 tumor cells respectively were inoculated into nude mice (BALB/c, male, 5-6 weeks of age), and when the mean tumor volume reaches 150 mm^3 mice was randomized into groups. The H1975 tumor model in nude mice includes one positive control group and three dosage groups of compound Ie (6.7 mg/kg/day, 13.4 mg/kg/day, and 20.1 mg/kg/day. The A549 tumor model in nude mice includes one positive control group, two dosage groups of compound Ie (10 mg/kg/day, 20 mg/kg/day), and one dosage group of Docetaxel (12 mg/kg/day). The HCC827 tumor model in nude mice includes one positive control group, two dosage groups of compound Ie (0.5 mg/kg/day, 2.5 mg/kg/day), and one dosage group of Erlotinib (12.5 mg/kg/day). The A431 tumor model in nude mice includes one positive control group, two dosage groups of compound Ie (2.5 mg/kg/day, 5 mg/kg/day), and one dosage group of Erlotinib (50 mg/kg/day). […] The tumor size and body weight of nude mice were recorded twice weekly from the first day of administration. The tumor volume was calculated using formula (1×w^2), wherein 1 and w respectively represents the maximum and minimum size in each measurement. […]

[3] = Long-term toxicity experiment (28 days) in rats; format: in vivo; conditions: for toxicity reaction: po
Experimental: Experiment Animals: rats, male, 6-8 weeks of age, body weight: 180-250 g; dogs, male, about 24 months, body weight: 7-10 kg.
Preparation of sample: in rat's experiments the mixed formulation powder of the compound Ie was formulated into 0.1, 0.3 and 1 mg/mL homogeneous suspension for use; administration route: oral administration; […]. In dog's experiments the tablets of compound Ie were fed to dogs. […].
Sample collection: blood was collected at the time points of 1, 10, 20 and 28 days respectively, about 120-200 μL whole blood was collected from 3 animals at each time point. Blood was collected at 1 h, 4 h, 8 h and 24 h after administration.
Sample analysis: the collected samples were detected by LC-MS/MS, and the instrument model was SHIMADZU20 A-API4000.
as §1

EGFR kinases = EGFR kinases (Homo sapiens, UniProt P00533); assay: Reversible inhibition test of enzyme activity of EGFR kinases; format: biochemical
EGFR kinases, sequence (P00533 25-1210): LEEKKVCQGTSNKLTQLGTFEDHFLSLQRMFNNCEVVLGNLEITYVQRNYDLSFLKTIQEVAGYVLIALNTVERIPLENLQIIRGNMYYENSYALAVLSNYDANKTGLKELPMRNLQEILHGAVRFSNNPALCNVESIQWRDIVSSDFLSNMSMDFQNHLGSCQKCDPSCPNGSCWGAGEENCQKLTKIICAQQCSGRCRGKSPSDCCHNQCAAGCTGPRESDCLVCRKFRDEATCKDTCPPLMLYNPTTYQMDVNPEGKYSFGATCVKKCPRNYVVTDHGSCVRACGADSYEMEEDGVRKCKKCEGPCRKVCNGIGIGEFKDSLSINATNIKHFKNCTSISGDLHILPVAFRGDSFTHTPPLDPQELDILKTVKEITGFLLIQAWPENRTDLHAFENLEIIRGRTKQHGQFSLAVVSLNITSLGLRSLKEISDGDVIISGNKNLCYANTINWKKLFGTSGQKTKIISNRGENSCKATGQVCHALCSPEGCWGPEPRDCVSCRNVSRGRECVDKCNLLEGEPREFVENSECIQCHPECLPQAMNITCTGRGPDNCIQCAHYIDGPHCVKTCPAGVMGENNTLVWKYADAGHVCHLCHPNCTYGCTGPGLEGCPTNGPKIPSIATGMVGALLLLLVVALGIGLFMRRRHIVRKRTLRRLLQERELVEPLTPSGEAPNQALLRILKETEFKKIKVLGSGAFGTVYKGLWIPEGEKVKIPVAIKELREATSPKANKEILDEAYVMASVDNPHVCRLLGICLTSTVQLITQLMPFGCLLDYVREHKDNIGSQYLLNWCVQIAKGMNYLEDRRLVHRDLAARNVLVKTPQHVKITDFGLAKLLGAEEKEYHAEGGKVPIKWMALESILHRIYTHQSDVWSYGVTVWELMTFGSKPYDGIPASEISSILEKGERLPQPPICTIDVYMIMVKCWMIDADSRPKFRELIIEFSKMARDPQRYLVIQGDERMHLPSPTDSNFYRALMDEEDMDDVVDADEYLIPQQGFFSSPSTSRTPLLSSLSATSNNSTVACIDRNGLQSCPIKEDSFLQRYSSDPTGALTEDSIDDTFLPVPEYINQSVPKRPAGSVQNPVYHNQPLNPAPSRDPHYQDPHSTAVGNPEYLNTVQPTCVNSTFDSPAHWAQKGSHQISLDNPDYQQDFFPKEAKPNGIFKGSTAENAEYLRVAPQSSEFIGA

For `CN(C)C/C=C/C(=O)Nc1cc2c(Nc3ccc(F)c(Cl)c3)ncnc2cc1OC(F)F` [Compound Ie], the AUC(0-inf) ([1]; 1 mg/kg Intravenous Injection) was 0.167 µg·h/mL, the AUC(0-t) ([1]; 1 mg/kg Intravenous Injection) was 0.137 µg·h/mL and the MRT inf ([1]; 1 mg/kg Intravenous Injection) was 2.88 h. The clearance ([1]; 1 mg/kg Intravenous Injection) was 6.9 L/h/kg, the half-life ([1]; 1 mg/kg Intravenous Injection) was 2.31 h and the Vd ([1]; 1 mg/kg Intravenous Injection, read-out: Vss) was 18.9 L/kg. For the same compound, the AUC(0-inf) ([1]; 5 mg/kg Oral Administration) was 1.6 µg·h/mL, the AUC(0-t) ([1]; 5 mg/kg Oral Administration) was 1.15 µg·h/mL and the Cmax ([1]; 5 mg/kg Oral Administration) was 0.0923 µg/mL. For the same compound, the Tmax ([1]; 5 mg/kg Oral Administration) was 4.33 h, the half-life ([1]; 5 mg/kg Oral Administration) was 7.11 h and the “inhibitory and therapeutic effects on CAL27 tumor model” value [2] was “strong inhibitory effects and therapeutic effects”. The “reversibility of toxicity reaction after drug withdrawal” value ([3]; rat, in vivo) was “reversible”, the toxicity reaction ([3]; rat, in vivo, 1 mg/kg) was “no toxicity reaction” and the toxicity reaction ([3]; rat, in vivo, 3 mg/kg) was “no toxicity reaction”. For the same compound, the “AUC relative to Afatinib in the same dosage” value ([3]; rats, oral, 28 days) was “about 5 times”, the “time after drug withdrawal until weight close to control group” value ([3]; rats, 1, 3 and 10 mg/kg groups) was 5 to 6 days and the “weight recovery after drug withdrawal” value ([3]; rats, compound Ie 1, 3 and 10 mg/kg groups) was “regain weight very quickly”. The “reversibility of inhibition of EGFR kinases” value (EGFR kinases) was “irreversibility”.
